Laboratory results: ChEMBL document CHEMBL4619795, “Establishing the Structure-Activity Relationship of Daptomycin” (ACS Med Chem Lett, 2020)
Activity calls are given as the source filed them. No cut-off for these calls is given here.

Experiments:
Staphylococcus aureus [1] = assay: Antibacterial activity against methicillin-resistant Staphylococcus aureus 11 assessed as bacterial growth inhibition in presence of 50 ug/ml calcium ions by CLSI protocol based broth microdilution method; type: functional
Staphylococcus aureus [2] = assay: Antibacterial activity against methicillin-resistant Staphylococcus aureus 14 assessed as bacterial growth inhibition in presence of 50 ug/ml calcium ions by CLSI protocol based broth microdilution method; type: functional
Staphylococcus aureus [3] = assay: Antibacterial activity against methicillin-resistant Staphylococcus aureus 86 assessed as bacterial growth inhibition in presence of 50 ug/ml calcium ions by CLSI protocol based broth microdilution method; type: functional
Staphylococcus aureus [4] = assay: Antibacterial activity against methicillin-resistant Staphylococcus aureus 88 assessed as bacterial growth inhibition in presence of 50 ug/ml calcium ions by CLSI protocol based broth microdilution method; type: functional
Staphylococcus aureus [5] = assay: Antibacterial activity against Staphylococcus aureus ATCC 29213 assessed as bacterial growth inhibition in presence of 50 ug/ml calcium ions by CLSI protocol based broth microdilution method; type: functional
Enterococcus faecalis [6] = assay: Antibacterial activity against Streptococcus faecalis assessed as bacterial growth inhibition in presence of 50 ug/ml calcium ions by CLSI protocol based broth microdilution method; type: functional
Enterococcus [7] = assay: Antibacterial activity against Enterococcus 6 assessed as bacterial growth inhibition in presence of 50 ug/ml calcium ions by CLSI protocol based broth microdilution method; type: functional
Enterococcus [8] = assay: Antibacterial activity against Enterococcus 60 assessed as bacterial growth inhibition in presence of 50 ug/ml calcium ions by CLSI protocol based broth microdilution method; type: functional
Enterococcus faecalis [9] = assay: Antibacterial activity against Enterococcus faecalis ATCC 29212 assessed as bacterial growth inhibition in presence of 50 ug/ml calcium ions by CLSI protocol based broth microdilution method; type: functional
Lipid bilayer [10] = assay: Binding affinity to POPC/POPG (1:1) large unilamellar vesicles assessed as change in ellipticity […] at 50 uM in presence of phosphatidylglycerol and Ca2+ ions by circular dichroism spectroscopy
Lipid bilayer [11] = assay: Binding affinity to POPC large unilamellar vesicles assessed as change in ellipticity […] at 50 uM in presence of phosphatidylglycerol and Ca2+ ions by circular dichroism spectroscopy
Staphylococcus aureus [12] = assay: Antibacterial activity against Staphylococcus aureus ATCC 43300 infected in Galleria mellonella larvae assessed as increase in larvae survival at 50 mg/kg measured up to 48 hrs post-infection; type: functional, organism-based
[13] = Toxicity in Galleria mellonella larvae infected with Staphylococcus aureus ATCC 43300 assessed as larvae death at 50 mg/kg measured at 36 hrs post-infection; type: organism-based; conditions: in vivo
Lipid bilayer [14] = assay: Binding affinity to POPC/POPG (1:1) large unilamellar vesicles assessed as close proximity of tryptophan and kynurenine residues at 50 uM in presence of phosphatidylglycerol and Ca2+ ions by circular dichroism spectroscopy
Lipid bilayer [15] = assay: Binding affinity to POPC large unilamellar vesicles assessed as close proximity of tryptophan and kynurenine residues at 50 uM in presence of phosphatidylglycerol and Ca2+ ions by circular dichroism spectroscopy
Lipid bilayer [16] = assay: Binding affinity to POPC/POPG (1:1) large unilamellar vesicles assessed as conformational changes at 50 uM in presence of phosphatidylglycerol and Ca2+ ions by circular dichroism spectroscopy
Lipid bilayer [17] = assay: Binding affinity to POPC large unilamellar vesicles assessed as conformational changes at 50 uM in presence of phosphatidylglycerol and Ca2+ ions by circular dichroism spectroscopy
Staphylococcus aureus [18] = assay: Bactericidal activity against Staphylococcus aureus 86 assessed as reduction in colony formation at 8 ug/ml measured at 24 hrs by time-killing assay; type: functional, organism-based
Staphylococcus aureus [19] = assay: Antibacterial activity against Staphylococcus aureus ATCC 29213 assessed as decrease in mutation prevention concentration measured after 72 hrs; type: functional, organism-based

CCCCCCCCCC(=O)N[C@@H](Cc1c[nH]c2ccccc12)C(=O)N[C@@H](CC(N)=O)C(=O)N[C@@H](CC(=O)O)C(=O)N[C@@H]1C(=O)NCC(=O)N[C@@H](CCCN)C(=O)N[C@@H](CC(=O)O)C(=O)N[C@H](C)C(=O)N[C@@H](CCC(=O)O)C(=O)NCC(=O)N[C@H](CO)C(=O)N[C@@H]([C@@H](C)CC(=O)O)C(=O)N[C@@H](CC(=O)c2ccccc2N)C(=O)O[C@@H]1C
MIC (Staphylococcus aureus [1]): ≥ 32 µg/mL
MIC (Staphylococcus aureus [2]): ≥ 32 µg/mL
MIC (Staphylococcus aureus [3]): ≥ 32 µg/mL
MIC (Staphylococcus aureus [4]): ≥ 32 µg/mL
MIC (Staphylococcus aureus [5]): ≥ 32 µg/mL
MIC (Enterococcus faecalis [6]): ≥ 32 µg/mL
MIC (Enterococcus [7]): ≥ 32 µg/mL
MIC (Enterococcus [8]): ≥ 32 µg/mL
MIC (Enterococcus faecalis [9]): ≥ 32 µg/mL
Activity (Lipid bilayer [10]): Active
Activity (Lipid bilayer [11]): Active

CCCCCCCCCC(=O)N[C@@H](Cc1c[nH]c2ccccc12)C(=O)N[C@H](CC(N)=O)C(=O)N[C@@H](CC(=O)O)C(=O)N[C@@H]1C(=O)NCC(=O)N[C@@H](CCCN)C(=O)N[C@@H](CC(=O)O)C(=O)N[C@H](C)C(=O)N[C@@H](CC(=O)O)C(=O)NCC(=O)N[C@H](CO)C(=O)N[C@@H]([C@H](C)CC(=O)O)C(=O)N[C@@H](CC(=O)c2ccccc2N)C(=O)O[C@@H]1C
MIC (Staphylococcus aureus [1]): 0.5 µg/mL
MIC (Staphylococcus aureus [2]): 0.5 µg/mL
MIC (Staphylococcus aureus [3]): 0.5 µg/mL
MIC (Staphylococcus aureus [4]): 0.25 µg/mL
MIC (Staphylococcus aureus [5]): 0.25 µg/mL
MIC (Enterococcus faecalis [6]): 4 µg/mL
MIC (Enterococcus [7]): 2 µg/mL
MIC (Enterococcus [8]): 2 µg/mL
MIC (Enterococcus faecalis [9]): 4 µg/mL
Activity (Staphylococcus aureus [12]): inactive
Activity [13]: Toxic
Activity (Lipid bilayer [14]): Active
Activity (Lipid bilayer [15]): Active
Activity (Lipid bilayer [16]): Active
Activity (Lipid bilayer [17]): Active

CCCCCCCCCC(=O)N[C@@H](Cc1cn(C)c2ccccc12)C(=O)N[C@@H](CC(N)=O)C(=O)N[C@@H](CC(=O)O)C(=O)N[C@@H]1C(=O)NCC(=O)N[C@@H](CCCN)C(=O)N[C@@H](CC(=O)O)C(=O)N[C@H](C)C(=O)N[C@@H](CC(=O)O)C(=O)NCC(=O)N[C@H](CO)C(=O)N[C@@H]([C@@H](C)CC(=O)O)C(=O)N[C@@H](CC(=O)c2ccccc2N)C(=O)O[C@@H]1C
Activity (Staphylococcus aureus [18]): Active
Activity (Staphylococcus aureus [19]): Active

CCCCCCCCCC(=O)N[C@@H](Cc1c[nH]c2ccccc12)C(=O)N[C@@H](CC(N)=O)C(=O)N[C@@H](CC(=O)O)C(=O)N[C@@H]1C(=O)NCC(=O)N[C@@H](CCCN)C(=O)N[C@@H](CC(N)=O)C(=O)N[C@H](C)C(=O)N[C@@H](CC(N)=O)C(=O)NCC(=O)N[C@H](CO)C(=O)N[C@@H]([C@@H](C)CC(=O)O)C(=O)N[C@@H](CC(=O)c2ccccc2N)C(=O)O[C@@H]1C
MIC (Staphylococcus aureus [1]): ≥ 32 µg/mL
MIC (Staphylococcus aureus [2]): ≥ 32 µg/mL
MIC (Staphylococcus aureus [3]): ≥ 32 µg/mL
MIC (Staphylococcus aureus [4]): ≥ 32 µg/mL
MIC (Staphylococcus aureus [5]): ≥ 32 µg/mL
MIC (Enterococcus faecalis [6]): ≥ 32 µg/mL
MIC (Enterococcus [7]): ≥ 32 µg/mL
MIC (Enterococcus [8]): ≥ 32 µg/mL
MIC (Enterococcus faecalis [9]): ≥ 32 µg/mL
Activity (Lipid bilayer [10]): Active
Activity (Lipid bilayer [11]): Active
